According to US9212168B2 (priority 2011, dated 2015):

What follows are compounds tested on HCV genotype 1a replicon (assay: HCV genotype 1a replicon assay (NS3 protease activity readout)). Conditions: HCV genotype 1a replicon.
Format: cell-based, hepatitis C virus
Method in brief: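 EC50 values came from a 4-parameter robust fit of fluorescence (ex 340, em 509 nm) produced by NS3-specific protease in lysates, assayed with 15 μM FRET substrate for 20 min at 37° C, after 48 or 72 hours of compound exposure (0.5% DMSO) of Huh7.5-derived APC89 genotype 1a replicon cells.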
`CNC(=O)N1C[C@@H](C)N(c2ccc(C(=O)Nc3cc(OC(F)(F)F)c(-c4ccc(-c5c[nH]c([C@@H]6C[C@H](C)CN6C(=O)[C@@H](NC(=O)OC)C(C)(C)C)n5)cc4)cc3Cl)cn2)C[C@@H]1C` [Example 7-1] was tested, and the “Genotype 1a” value was “D (D represents pEC50>10 (EC50<0.1 nM))”. `CNC(=O)N1C[C@@H](C)N(c2ccc(C(=O)Nc3cc(OC(F)(F)F)c(-c4ccc(-c5c[nH]c([C@@H]6C[C@H](C)CN6C(=O)[C@H](NC(=O)OC)C(C)(C)C)n5)cc4)cc3Cl)cn2)C[C@@H]1C` [Example 7-2] was tested, and the “Genotype 1a” value was “A (A represents a pEC50 value between 6 and 8 (EC50 between 1 μM and 10 nM))”. `CNC(=O)N1C[C@@H](C)N(c2ccc(C(=O)Nc3cc(OC(F)(F)F)c(-c4ccc(-c5c[nH]c([C@@H]6C[C@H](C)CN6C(=O)[C@@H](NC(=O)OC)C6CC6)n5)cc4)cc3Cl)cn2)C[C@@H]1C` [Example 7-3] was tested, and the “Genotype 1a” value was “D (D represents pEC50>10 (EC50<0.1 nM))”. With `CCCCOC(=O)N[C@H](C(=O)N1C[C@@H](C)C[C@H]1c1nc(-c2ccc(-c3cc(Cl)c(NC(=O)c4ccc(N5C[C@H](C)N(C(=O)NC)C[C@H]5C)nc4)cc3OC(F)(F)F)cc2)c[nH]1)C(C)C` [Example 7-4] the “Genotype 1a” value was “B (B represents pEC50 between 8 and 9 (EC50 between 1 and 10 nM))”. `CNC(=O)N1C[C@@H](C)N(c2ccc(C(=O)Nc3cc(OC(F)(F)F)c(-c4ccc(-c5c[nH]c([C@@H]6C[C@H](C)CN6C(=O)[C@@H](NC(=O)OC(C)C)C(C)C)n5)cc4)cc3Cl)cn2)C[C@@H]1C` [Example 7-5] was tested, and the “Genotype 1a” value was “B (B represents pEC50 between 8 and 9 (EC50 between 1 and 10 nM))”.

Same assay, conditions: Hepatitis C virus, read-out: Genotype 1a, HCV genotype 1a replicon
With `COC(=O)N[C@H](C(=O)N1CC(C)(C)C[C@H]1c1nc(-c2ccc(-c3ccc(C(=O)Nc4ccc(N5CCN(C(=O)C6CC6(C)C)C[C@H]5C)nc4)cc3OC(F)(F)F)cc2)c[nH]1)C(C)C` (stereo partly shown) [Example 6-8] the EC50 was 0.1 to 1 nM. With `COCC(=O)N1CCC[C@@]1(C)C(=O)N1CCN(c2ccc(NC(=O)c3ccc(-c4ccc(-c5c[nH]c([C@@H]6C[C@@H]7CCCC[C@@H]7N6C(=O)[C@@H](NC(=O)OC)C(C)C)n5)cc4)c(OC(F)(F)F)c3)cn2)[C@H](C)C1` [Example 6-13] the EC50 was less than 0.1 nM. In the case of `COC(=O)N[C@H](C(=O)N1[C@H](c2nc(-c3ccc(-c4ccc(C(=O)Nc5ccc(N6CCN(C(=O)[C@]7(C)CCCN7C(=O)[C@@H](NC(=O)OC)C(C)C)C[C@H]6C)nc5)cc4OC(F)(F)F)cc3)c[nH]2)C[C@@H]2CCCC[C@@H]21)C(C)C` [Example 6-14], the EC50 is reported as less than 0.1 nM. In the case of `COC(=O)N[C@H](C(=O)N1C[C@@H](SC)C[C@H]1c1nc(-c2ccc(-c3ccc(C(=O)Nc4ccc(N5CCN(C(=O)C(C)(C)C)C[C@H]5C)nc4)cc3OC(F)(F)F)cc2)c[nH]1)C(C)C` [Example 6-15], the EC50 is reported as 0.1 to 1 nM. In the case of `COC(=O)N[C@H](C(=O)N1[C@H](c2nc(-c3ccc(-c4ccc(C(=O)Nc5ccc(N6CCN(C(=O)[C@]7(C)C[C@@H](O)CN7C(=O)OC(C)(C)C)C[C@H]6C)nc5)cc4OC(F)(F)F)cc3)c[nH]2)C[C@@H]2CCCC[C@@H]21)C(C)C` [Example 6-16], the EC50 is reported as 1 to 10 nM. Compound `[2H]C([2H])([2H])C1(C([2H])([2H])[2H])CC1C(=O)N1CCN(c2ccc(NC(=O)c3ccc(-c4ccc(-c5nc([C@@H]6C[C@H](N(C)C)CN6C(=O)[C@@H](NC(=O)OC)C(C)C)[nH]c5Cl)cc4)c(OC(F)(F)F)c3)cn2)[C@H](C)C1` (stereo partly shown) [Example 6-17] has an EC50 of less than 0.1 nM. `COC(=O)N[C@H](C(=O)N1C[C@@H]([S+](C)[O-])C[C@H]1c1nc(-c2ccc(-c3ccc(C(=O)Nc4ccc(N5CCN(C(=O)C6CC6(C)C)C[C@H]5C)nc4)cc3OC(F)(F)F)cc2)c[nH]1)C(C)C` (stereo partly shown) [Example 6-18] showed an EC50 of 0.1 to 1 nM. `COC(=O)N[C@H](C(=O)N1C[C@@H]([S+](C)[O-])C[C@H]1c1nc(-c2ccc(-c3ccc(C(=O)Nc4ccc(N5CCN(C(=O)C(C)(C)C)C[C@H]5C)nc4)cc3OC(F)(F)F)cc2)c[nH]1)C(C)C` (stereo partly shown) [Example 6-19] was tested, and the EC50 was 0.1 to 1 nM. In the case of `[2H]C([2H])([2H])C1(C([2H])([2H])[2H])C[C@@H]1C(=O)N1CCN(c2ccc(NC(=O)c3ccc(-c4ccc(-c5c[nH]c([C@@H]6C[C@H]([S+](C)[O-])CN6C(=O)[C@@H](NC(=O)OC)C(C)C)n5)cc4)c(OC(F)(F)F)c3)cn2)[C@H](C)C1` (stereo partly shown) [Example 6-20], the EC50 is reported as 1 to 10 nM. In the case of `COC(=O)N[C@H](C(=O)N1C[C@@H](S(C)(=O)=O)C[C@H]1c1nc(-c2ccc(-c3ccc(C(=O)Nc4ccc(N5CCN(C(=O)[C@H]6CC6(C)C)C[C@H]5C)nc4)cc3OC(F)(F)F)cc2)c[nH]1)C(C)C` [Example 6-21], the EC50 is reported as 0.1 to 1 nM. Compound `COC(=O)N[C@H](C(=O)N1C[C@@H](S(C)(=O)=O)C[C@H]1c1nc(-c2ccc(-c3ccc(C(=O)Nc4ccc(N5CCN(C(=O)C(C)(C)C)C[C@H]5C)nc4)cc3OC(F)(F)F)cc2)c[nH]1)C(C)C` [Example 6-22] has an EC50 of 1 to 10 nM. For `COC(=O)N[C@H](C(=O)N1CC(C)(C)C[C@H]1c1nc(-c2ccc(-c3ccc(C(=O)Nc4ccc(N5CCN(C(=O)C(C)(C)C)C[C@H]5C)nc4)cc3OC(F)(F)F)cc2)c[nH]1)C(C)C` [Example 6-23], the EC50 was 1 to 10 nM. In the case of `COC(=O)N[C@H](C(=O)N1C[C@H](C)C[C@H]1c1nc(-c2ccc(-c3cc(Cl)c(C(=O)Nc4ccc(N5CCN(C(=O)C(C)(C)C)C[C@H]5C)nc4)cc3OC(F)(F)F)cc2)c[nH]1)C(C)C` [Example 6-26], the EC50 is reported as 1 to 10 nM. In the case of `CCO[C@H]1C[C@@H](c2nc(-c3ccc(-c4cc(Cl)c(C(=O)Nc5ccc(N6CCN(C(=O)C(C)(C)C)C[C@H]6C)nc5)cc4OC(F)(F)F)cc3)c[nH]2)N(C(=O)[C@@H](NC(=O)OC)C(C)C)C1` [Example 6-27], the EC50 is reported as 0.1 to 1 nM. In the case of `CNC(=O)N1C[C@@H](C)N(c2ccc(C(=O)Nc3cc(OC(F)(F)F)c(-c4ccc(-c5c[nH]c([C@@H]6C[C@H](C)CN6C(=O)C(c6ccccc6)N(C)C)n5)cc4)cc3Cl)cn2)C[C@@H]1C` (stereo partly shown) [Example 7-11], the EC50 is reported as less than 0.1 nM. With `CCN(CC)C(C(=O)N1C[C@@H](C)C[C@H]1c1nc(-c2ccc(-c3cc(Cl)c(NC(=O)c4ccc(N5C[C@H](C)N(C(=O)NC)C[C@H]5C)nc4)cc3OC(F)(F)F)cc2)c[nH]1)c1ccccc1` (stereo partly shown) [Example 7-12] the EC50 was less than 0.1 nM. Work on `CNC(=O)N1C[C@@H](C)N(c2ccc(C(=O)Nc3cc(OC(F)(F)F)c(-c4ccc(-c5c[nH]c([C@@H]6C[C@H](C)CN6C(=O)C(C)N(C)C(=O)OC)n5)cc4)cc3Cl)cn2)C[C@@H]1C` (stereo partly shown) [Example 7-14] yielded an EC50 of less than 0.1 nM. `COC(=O)N[C@H](C(=O)N1[C@@H]2C[C@@H]2C[C@H]1c1nc(-c2ccc(-c3cc(Cl)c(NC(=O)c4ccc(N5CCN(C(=O)C6CC6)C[C@H]5C)nc4)cc3C(F)(F)F)cc2)c[nH]1)C(C)C` [Example 8-3] showed an EC50 of 0.1 to 1 nM. Work on `COC(=O)N[C@H](C(=O)N1[C@@H]2C[C@@H]2C[C@H]1c1nc(-c2ccc(-c3cc(Cl)c(NC(=O)c4ccc(N5CCN(C(=O)C(C)(C)C)C[C@H]5C)nc4)cc3C(F)(F)F)cc2)c[nH]1)C(C)C` [Example 8-5] yielded an EC50 of 0.1 to 1 nM. `COC(=O)N[C@H](C(=O)N1[C@@H]2C[C@@H]2C[C@H]1c1nc(-c2ccc(-c3cc(Cl)c(NC(=O)c4ccc(N5CCN(C(=O)C6CC67CC7)C[C@H]5C)nc4)cc3C(F)(F)F)cc2)c[nH]1)C(C)C` (stereo partly shown) [Example 8-6] showed an EC50 of 0.1 to 1 nM. `COC(=O)N[C@H](C(=O)N1[C@@H]2C[C@@H]2C[C@H]1c1nc(-c2ccc(-c3ccc(C(=O)Nc4ccc(N5CCN(C(=O)C(C)(C)C)C[C@H]5C)nc4)cc3OC(F)(F)F)cc2)c(Cl)[nH]1)C(C)C` [Example 9-1] showed an EC50 of 0.1 to 1 nM. Compound `COC(=O)N[C@H](C(=O)N1C[C@@H](N(C)C)C[C@H]1c1nc(-c2ccc(-c3ccc(C(=O)Nc4ccc(N5CCN(C(=O)C(C)(C)C)C[C@H]5C)nc4)cc3OC(F)(F)F)cc2)c(Cl)[nH]1)C(C)C` [Example 10-3] has an EC50 of less than 0.1 nM. Compound `COC(=O)N[C@H](C(=O)N1C[C@@H](N(C)C)C[C@H]1c1nc(-c2ccc(-c3ccc(C(=O)Nc4ccc(N5CCN(C(=O)N(C)C)C[C@H]5C)nc4)cc3OC(F)(F)F)cc2)c(Cl)[nH]1)C(C)C` [Example 10-4] has an EC50 of 0.1 to 1 nM. In the case of `CCOCCC(C)(C)C(=O)N1CCN(c2ccc(C(=O)Nc3cc(OC(F)(F)F)c(-c4ccc(-c5c[nH]c([C@@H]6C[C@H](C)CN6C(=O)[C@@H](NC(=O)OC)C(C)C)n5)cc4)cc3Cl)cn2)[C@H](C)C1` [Example 12-3], the EC50 is reported as less than 0.1 nM. For `CCC(CO)(CO)C(=O)N1CCN(c2ccc(C(=O)Nc3cc(OC(F)(F)F)c(-c4ccc(-c5c[nH]c([C@@H]6C[C@H](C)CN6C(=O)[C@@H](NC(=O)OC)C(C)C)n5)cc4)cc3Cl)cn2)[C@H](C)C1` [Example 12-4], the EC50 was less than 0.1 nM. `COC(=O)N[C@H](C(=O)N1C[C@@H](C)C[C@H]1c1nc(-c2ccc(-c3cc(Cl)c(NC(=O)c4ccc(N5CCN(C(=O)C6CCCN6C(N)=O)C[C@H]5C)nc4)cc3OC(F)(F)F)cc2)c[nH]1)C(C)C` (stereo partly shown) [Example 12-6] showed an EC50 of less than 0.1 nM. For `COC(=O)N[C@H](C(=O)N1C[C@@H](C)C[C@H]1c1nc(-c2ccc(-c3cc(Cl)c(NC(=O)c4ccc(N5CCN(C(=O)c6ccccn6)C[C@H]5C)nc4)cc3OC(F)(F)F)cc2)c[nH]1)C(C)C` [Example 12-7], the EC50 was 0.1 to 1 nM. `COC(=O)N[C@H](C(=O)N1C[C@@H](C)C[C@H]1c1nc(-c2ccc(-c3cc(Cl)c(NC(=O)c4ccc(N5CCN(C(=O)C6(N)CC6(C)C)C[C@H]5C)nc4)cc3OC(F)(F)F)cc2)c[nH]1)C(C)C` (stereo partly shown) [Example 12-9] was tested, and the EC50 was less than 0.1 nM. `COC(=O)N[C@H](C(=O)N1C[C@@H](C)C[C@H]1c1nc(-c2ccc(-c3cc(Cl)c(NC(=O)c4ccc(N5CCN(C(=O)C6(N(C)C)CC6)C[C@H]5C)nc4)cc3OC(F)(F)F)cc2)c[nH]1)C(C)C` [Example 12-10] gave an EC50 of less than 0.1 nM. In the case of `COC(=O)N[C@H](C(=O)N1C[C@@H](C)C[C@H]1c1nc(-c2ccc(-c3cc(Cl)c(NC(=O)c4ccc(N5CCN(C(=O)N(CCO)CCO)C[C@H]5C)nc4)cc3OC(F)(F)F)cc2)c[nH]1)C(C)C` [Example 12-16], the EC50 is reported as 0.1 to 1 nM. `COC(=O)N[C@H](C(=O)N1C[C@@H](C)C[C@H]1c1nc(-c2ccc(-c3cc(Cl)c(NC(=O)c4ccc(N5CCN(C(=O)NN6CCOCC6)C[C@H]5C)nc4)cc3OC(F)(F)F)cc2)c[nH]1)C(C)C` [Example 12-18] showed an EC50 of less than 0.1 nM. Compound `COC(=O)N[C@H](C(=O)N1C[C@@H](C)C[C@H]1c1nc(-c2ccc(-c3cc(Cl)c(NC(=O)c4ccc(N5CCN(C(=O)NN6CCS(=O)(=O)CC6)C[C@H]5C)nc4)cc3OC(F)(F)F)cc2)c[nH]1)C(C)C` [Example 12-19] has an EC50 of less than 0.1 nM.
